In patent EP3019008B1, “USE OF AN ISOPROPANOL-CONTAINING SOLUTION TO COMBAT CALCIVIRIDAE” (Schülke & Mayr GmbH, priority 2013, dated 2015):
Like-named read-outs stand apart in the source and are kept apart here.

Tests used:
murine norovirus [1] = conditions: highest concentration tested of 60% by volume, non-living surfaces, Magulski et al.; cited from earlier work
murine norovirus [2] = assay: Modified test EN 1500, hygienic disinfection of the hands of test persons contaminated with virus; format: in vivo; conditions: 5 test persons
Description: Method B:: Modified test EN 1500 "Hygienic disinfection of the hands"
The test is based upon EN 1500 (practical test method for the hygienic disinfection of the hands).
In the tests, the hands of test persons are contaminated with 3 ml of murine norovirus, namely both the hands of the test persons of the reference group and the hands of the test persons of the test group. A sample is then taken (1 min) before the disinfection. After that, the test persons of each group disinfect their hands with disinfection agent. The test persons of the reference group disinfect twice with 3 ml of a reference product in each case, the reference product being allowed to act for 30 sec and rubbed in after each disinfection. The test persons of the test group instead disinfect twice with 3 ml of the disinfection agent to be tested. After that, a sample is taken […] (1 min), both in the reference group and in the test group.
The test persons of the respective group are then swapped over in a second test.

RAW cells ATCC TIB-71 = assay: Cytotoxicity control (CD50) of the EN 14476 suspension test; parameters: unit not given beside the values; conditions: reference inactivation, PBS
Description: Virus control: The virus titre for the murine norovirus amounted to 7.50 ± 0.47 TCID50 / 0·1 ml and thus to 8.50 ± 0.47 TCID50 / ml. The demonstrable titre reduction thus amounted to ≥ 4.00 lg^10. […] Reference The reduction factor of 0.7% formaldehyde amounted to 2·33 log^10 inactivation after 30 min exposure time and to 3.17 log^10 after 60 min exposure time.

[3] = system: murine norovirus, strain S 99 Berlin; assay: Quantitative suspension test of virucidal effect according to EN 14476 (low stressing); conditions: for log reduction at 0.7 %: Norwalk virus, read-out: reduction factor; for log10-TCID50 / 0·1 ml after ... min murine norovirus: reference inactivation, PBS
Description: Method A:Quantitative suspension test of virucidal effect according to EN 14476: Murine norovirus (low stressing)
Methodology:EN 14476:2005-04/A1:2006-10 and PrEN 14476:2011: Chemical disinfection agents and antiseptics - Quantitative suspension test of virucidal effect for chemical disinfection agents and antiseptics used in human medicine, Test methods and requirements (phase 2, stage 1)
In order to achieve the concentration of 97%, 0·1 ml of the virus, 0.2 ml of the 5-fold concentrated stressing substance and 9.7 ml of the product are mixed. After the termination of the exposure time, the effect of the disinfection agent is stopped by dilution (or gel filtration) and a series of dilutions in accordance with the progression 1:10/ 1:100 / 1:1,000 etc. is applied in order to determine the residual virus content. The titration is carried out in the microtitre system on 96-well plates.
Titration method: • Virus titration on cells as monolayers in 96-well microtitration plates. 0.5ml of product test solution is diluted with 4.5 ml of ice-cold DMEM + 2% FBS to a dilution of 10^-8. 100 µl of each dilution was pipetted into 6 wells of the microtitration plate. Method of terminating the effect of the product and reducing the cytotoxicity: • Gel filtration with MicroSpin columns and dilution to 10^-4 within 10 sec with ice-cold DMEM + 2% FBS
The TCID50 was calculated in accordance with the method of Spearman and Kärber. m = xk + d/2−d∑pi [formula] • m = negative logarithm of the titre in relation to the test volume • Xk = logarithm of the smallest dilution stage in which all the test objects react positively • d = logarithm of the dilution factor • pi = observed reaction rate
RF = log(viruscontrol)−log(testproduct) [formula] KRF = sqrt(((2Sm(control)))^2 + ((2Sm(residualtitre)))^2) [formula] • KRF = 95% confidence interval of the reduction factor • Sm = standard deviation of the logarithmized titre

CC(C)O [isopropanol]
effectiveness compared with ethanol and n-propanol (murine norovirus [1]): three decadic levels below the effectiveness of ethanol and n-propanol

CCO [Ethanol 70% w/w, Ethanol]
Average after disinfection (murine norovirus [2]; 2 x 30 s with 3 ml each): 3.02 log TCID50/ml
Average before disinfection (murine norovirus [2]; baseline before disinfection): 5.6 log TCID50/ml
RF (murine norovirus [2]; reduction factor, 2 x 30 s with 3 ml each): 2.58 log TCID50/ml

C=O [Formaldehyde 0·7% (V/V), Formaldehyde]
CD50 (RAW cells ATCC TIB-71): ≤ 3.5
log reduction at 0.7 % ([3]; 0.5 h): 2.33
log reduction at 0.7 % ([3]; 1 h): 3.17
log10-TCID50 / 0·1 ml after ... min murine norovirus ([3]; residual titre after 5 min): 6.33 ± 0.33 log10-TCID50 / 0·1 ml
log10-TCID50 / 0·1 ml after ... min murine norovirus ([3]; residual titre after 15 min): 5.67 ± 0.54 log10-TCID50 / 0·1 ml
log10-TCID50 / 0·1 ml after ... min murine norovirus ([3]; residual titre after 30 min): 5.17 ± 0.56 log10-TCID50 / 0·1 ml
log10-TCID50 / 0·1 ml after ... min murine norovirus ([3]; residual titre after 60 min): 4.33 ± 0.33 log10-TCID50 / 0·1 ml
